Data reported in patent US20260242768A1, “ACETYL-COENZYME A CARBOXYLASE MUTANTS” (CIBUS US LLC, priority 2023, published 2026).
Values belong to the substance of their own block, whether it stands above or below them.

Columns and labels:
[1] = system: rice (Oryza sativa) plastidal ACCase; assay: Clethodim tolerance of rice ACCase mutations, yeast complementation assay (Examples 1-3); format: cell-based; conditions: for clethodim tolerance of combined mutations compared with single mutation(s) or parent mutant: double/triple mutants vs single mutations; for clethodim tolerance: ACCase mutation tested with the herbicide clethodim; for effect on clethodim tolerance of the single D2078G mutation: mutation added to D2078G
From the text: Joachimiak M. et al Proc Natl Acad Sci U.S.A. 1997 Sep. 2; 94 (18): 9990-5 and WO/2013/074524 and WO/2013/074524 each describe methods to complement a yeast (Saccharomyces cerevisiae) strain lacking the native acc1 gene with either a wt or mutated form of a chimeric plastidal ACCase gene from a plant such as rice (Oryza sativa). Methods to introduce one or more mutations listed herein into the chimeric ACCase gene and subsequently complement the acc1 lacking yeast strain are well known by an individual skilled in the art. In the art assays are known for measuring tolerance of a mutated plant ACCase gene versus a herbicide that is a member of the aryloxyphenoxypropanoate, cyclohexanedione, and/or phenylpyrazoline families of herbicides such as clethodim, sethoxydim, fluazifop, haloxyfop, quizalofop, and pinoxaden (Joachimiak M. et al Proc Natl Acad Sci U.S.A. 1997 Sep. 2; 94 (18): 9990-5 and WO/2013/074524).
A library of random mutations in the rice (Oryza sativa) plastidal ACCase gene was generated and screened for clethodim tolerant clones using a yeast complementation assay.

O. sativa ACCase = assay: Growth of Saccharomyces cerevisiae pseudodiploid acc1Δ strains carrying wild-type or mutant OsACCase plasmids, streaked onto plates with increasing concentrations of clethodim (Examples 5, 7, 10; Tables 8, 12); format: cell-based, Oryza sativa; set-up: key to growth, 0 mM clethodim / growth, 0.025 mM clethodim / growth, 0.1 mM clethodim / growth, 0.25 mM clethodim / growth, 0.5 mM clethodim / growth, 1 mM clethodim: ++ = Strong growth; + = Poor growth; − = No growth; key to relative growth phenotype, 0.5 mM clethodim / relative growth phenotype, 1 mM clethodim / relative growth phenotype, 2 mM clethodim / relative growth phenotype, highGal / relative growth phenotype, lowGal / relative growth phenotype, 0.05 mM clethodim / relative growth phenotype, 0.1 mM clethodim / relative growth phenotype, 0.25 mM clethodim: +++ high growth; ++ moderate growth; + low to negligible growth; (−) some cell debris, no growth; − no growth or cell debris
From the text: Mutations at position N2097S and V2098A were combined to determine if point mutations at both positions gave increased resistance compared to either single point mutation. Each of these respective mutations (N2097S, V2098A and N2097S/V2098A) were generated by standard methods and introduced into a Saccharomyces cerevisiae pseudodiploid acc1Δ strain with a plasmid containing wild-type O. sativa ACCase gene. Once each of these mutations were introduced by recombination mediated mutagenesis, the OsACCase wild-type plasmid was removed, and mutation strains were confirmed by sequencing. The three strains, along with a series of controls including a WT strain (negative control), an I1781L mutant strain, and a D2078G mutant strain (positive control), were streaked onto plates with increasing concentrations of clethodim. […] These observations argue that N2097S is an enhancer of V2098A tolerance.
Edits at position S1784N and A1785G were combined to determine if point mutations at both of these two positions gave increased resistance compared to either single point mutation. Each of these respective mutations (S1784N, A1785G and S1784N/A1785G) were generated by standard methods and introduced into a Saccharomyces cerevisiae pseudodiploid acc1Δ strain with a plasmid containing wild-type O. sativa ACCase gene. Once each of these mutations were introduced by recombination mediated mutagenesis, the OsACCase wild-type plasmid was removed, and mutation strains were confirmed by sequencing. The three strains, along with a series of controls including a WT strain (negative control), an I1781L mutant strain, a D2078G mutant strain (positive control), and a V2075L mutant strain were streaked onto plates with increasing concentrations of clethodim.
Each of these respective mutations (D2078G, P2083T, D2078G/P2083T) were generated by standard methods and introduced into a Saccharomyces cerevisiae pseudodiploid acc14 strain with a plasmid containing the wild-type O. sativa ACCase gene. Once plasmids bearing each of these mutations, introduced using recombination-mediated mutagenesis, the OsACCase wild-type plasmid was removed, and strains bearing each mutant plasmid were confirmed by sequencing. The three strains, along with a series of controls including a wild-type strain (negative control), an I1781L mutant strain (medium control), and a pre-existing D2078G mutant strain (positive control) were streaked onto plates with increasing concentrations of clethodim.

[2] = plates with increasing clethodim, 0.01% galactose

Substance: L1543F-D1681G: double mutant ACCase
clethodim tolerance of combined mutations compared with single mutation(s) or parent mutant [1]: increased clethodim tolerance compared to any one mutation alone

Substance: L1818I: mutated ACCase, numbering per SEQ ID NO: 2
clethodim tolerance [1]: measurable clethodim tolerance

Substance: L1543V-D1681E: double mutant ACCase
clethodim tolerance of combined mutations compared with single mutation(s) or parent mutant [1]: increased clethodim tolerance compared to any one mutation alone

Substance: D1681E: mutated ACCase, numbering per SEQ ID NO: 2
clethodim tolerance [1]: measurable clethodim tolerance

Substance: S1784G: mutated ACCase, numbering per SEQ ID NO: 2
clethodim tolerance [1]: measurable clethodim tolerance

Substance: S1784N plus L1818H: double mutant ACCase
clethodim tolerance of combined mutations compared with single mutation(s) or parent mutant [1]: improves tolerance in comparison to either single mutation

Substance: L1543F: mutated ACCase, numbering per SEQ ID NO: 2
clethodim tolerance [1]: measurable clethodim tolerance

growth, 0 mM clethodim (O. sativa ACCase; Table 12, plate with 0 mM clethodim, galactose 0.01%): ++
growth, 0.025 mM clethodim (O. sativa ACCase; Table 12, plate with 0.025 mM clethodim, galactose 0.01%): −
growth, 0.1 mM clethodim (O. sativa ACCase; Table 12, plate with 0.1 mM clethodim, galactose 0.01%): −
growth, 0.25 mM clethodim (O. sativa ACCase; Table 12, plate with 0.25 mM clethodim, galactose 0.01%): −
growth, 0.5 mM clethodim (O. sativa ACCase; Table 12, plate with 0.5 mM clethodim, galactose 0.01%): −
growth, 1 mM clethodim (O. sativa ACCase; Table 12, plate with 1 mM clethodim, galactose 0.01%): −
Substance: P2083T: mutated ACCase, numbering per SEQ ID NO: 2
growth on clethodim plates (in words) (O. sativa ACCase; [2]): unable to grow on all concentrations of clethodim tested

Substance: V2075L/N2097D: double mutant ACCase
clethodim tolerance of combined mutations compared with single mutation(s) or parent mutant [1]: either less, or no more, tolerant than the single D2078G, V2075L and V2098A mutations

Substance: M1974T-D2078G: double mutant ACCase
clethodim tolerance of combined mutations compared with single mutation(s) or parent mutant [1]: tolerance that is similar to the corresponding original triple mutants

clethodim concentrations on which the strain grew (O. sativa ACCase; Example 7, plates with increasing clethodim, 0.01% galactose): up to 1 mM
relative growth phenotype, 0.05 mM clethodim (O. sativa ACCase; plate with 0.05 mM clethodim, galactose 0.01%): +++
relative growth phenotype, 0.1 mM clethodim (O. sativa ACCase; plate with 0.1 mM clethodim, galactose 0.01%): +++
relative growth phenotype, 0.25 mM clethodim (O. sativa ACCase; plate with 0.25 mM clethodim, galactose 0.01%): +++
relative growth phenotype, 0.5 mM clethodim (O. sativa ACCase; plate with 0.5 mM clethodim, galactose 0.01%): +++
relative growth phenotype, 1 mM clethodim (O. sativa ACCase; plate with 1 mM clethodim, galactose 0.01%): +
relative growth phenotype, 2 mM clethodim (O. sativa ACCase; plate with 2 mM clethodim, galactose 0.01%): (−)
relative growth phenotype, highGal (O. sativa ACCase; yeast acc1Δ strain with OsACCase plasmid, high galactose plate, no clethodim): +++
relative growth phenotype, lowGal (O. sativa ACCase; yeast acc1Δ strain with OsACCase plasmid, low galactose plate, no clethodim): +++
Substance: S1784N/A1785G: double mutant ACCase
tolerance/resistance of double mutant compared with single mutation(s) (O. sativa ACCase; [2]): superior in terms of resistance to either individual mutation

Substance: L1543V: mutated ACCase, numbering per SEQ ID NO: 2
clethodim tolerance [1]: measurable clethodim tolerance

Substance: N2097S/V2098A: double mutant ACCase
tolerance/resistance of double mutant compared with single mutation(s) (O. sativa ACCase; [2]): notably increased compared to the V2098A change alone

Substance: M1974T: mutated ACCase, numbering per SEQ ID NO: 2
clethodim tolerance [1]: neither R1672I nor M1974T alone provide measurable tolerance
effect on clethodim tolerance of the single D2078G mutation [1]: increase tolerance of the single D2078G mutation

Substance: M1975T: mutated ACCase, numbering per SEQ ID NO: 2
effect on clethodim tolerance of the single D2078G mutation [1]: neither M1975T nor M2257I provide detectable clethodim tolerance increase to the single D2078G mutation

Substance: C2088M: mutated ACCase, numbering per SEQ ID NO: 2
clethodim tolerance [1]: produces measurable tolerance

Substance: D2078G/N2097S: double mutant ACCase
clethodim tolerance of combined mutations compared with single mutation(s) or parent mutant [1]: either less, or no more, tolerant than the single D2078G, V2075L and V2098A mutations

Substance: D1681G: mutated ACCase, numbering per SEQ ID NO: 2
clethodim tolerance [1]: measurable clethodim tolerance

Substance: L1543V-D1681G: double mutant ACCase
clethodim tolerance of combined mutations compared with single mutation(s) or parent mutant [1]: increased clethodim tolerance compared to any one mutation alone

Substance: V2098A/N2097D: double mutant ACCase
clethodim tolerance of combined mutations compared with single mutation(s) or parent mutant [1]: either less, or no more, tolerant than the single D2078G, V2075L and V2098A mutations

Substance: L1543F-D1681E: double mutant ACCase
clethodim tolerance of combined mutations compared with single mutation(s) or parent mutant [1]: increased clethodim tolerance compared to any one mutation alone
